Results from BigSolDB 2.1.

Cc1cccc2sc(NN)nc12
solubility (mole fraction)
Settings | 273.15 K | 278.15 K | 283.15 K | 288.15 K | 293.15 K | 298.15 K | 303.15 K | 308.15 K | 313.15 K | 318.15 K
in acetone | 0.00958 | 0.0118 | 0.0142 | 0.0172 | 0.0203 | 0.024 | 0.0285 | 0.0335 | 0.0391 | 0.0456
in ethanol | 0.000807 | 0.00103 | 0.00131 | 0.00165 | 0.00203 | 0.00252 | 0.00313 | 0.00377 | 0.0046 | 0.00555
in ethyl acetate | 0.00359 | 0.00453 | 0.00569 | 0.00696 | 0.00848 | 0.0101 | 0.0124 | 0.0147 | 0.0176 | 0.0209
in isopropanol | 0.000928 | 0.00123 | 0.00153 | 0.00191 | 0.00235 | 0.00288 | 0.00353 | 0.00429 | 0.00519 | 0.0062
in methanol | 0.000589 | 0.000758 | 0.00095 | 0.00119 | 0.00151 | 0.00185 | 0.00232 | 0.00284 | 0.00348 | 0.00422
in n-butanol | 0.00137 | 0.00168 | 0.00216 | 0.00263 | 0.00329 | 0.00403 | 0.00505 | 0.00616 | 0.00755 | 0.00904
in n-propanol | 0.00115 | 0.00143 | 0.00178 | 0.00218 | 0.00272 | 0.0033 | 0.00395 | 0.00481 | 0.00573 | 0.00696
in toluene | 0.00227 | 0.00276 | 0.00366 | 0.00473 | 0.00583 | 0.00736 | 0.00925 | 0.0116 | 0.0145 | 0.0178
in water | 7.03e-06 | 9.04e-06 | 1.18e-05 | 1.51e-05 | 1.96e-05 | 2.56e-05 | 3.21e-05 | 4.05e-05 | 5.05e-05 | 6.25e-05
